Results as given in ChEMBL document CHEMBL1909046, “DrugMatrix in vitro pharmacology data”.
pIC50, pKi: −log10 of the molar value.

Legend:
[1] = target: Beta-3 adrenergic receptor (Homo sapiens, UniProt P13945); test: DRUGMATRIX: Adrenergic beta3 radioligand binding (ligand: [125I] Cyanopindolol); type: cell membranes, HEK293, Membrane; details: Not Active = under 50% inhibition at 10 µM; for IC50: hek293
[2] = target: 5-hydroxytryptamine receptor 2B (Homo sapiens, UniProt P41595); type: cell membranes, CHO-K1, Membrane; details: cho-k1; note: in other assays of this panel Not Active means under 50% inhibition at 10 µM
5-hydroxytryptamine receptor 2B, sequence (P41595 whole entry): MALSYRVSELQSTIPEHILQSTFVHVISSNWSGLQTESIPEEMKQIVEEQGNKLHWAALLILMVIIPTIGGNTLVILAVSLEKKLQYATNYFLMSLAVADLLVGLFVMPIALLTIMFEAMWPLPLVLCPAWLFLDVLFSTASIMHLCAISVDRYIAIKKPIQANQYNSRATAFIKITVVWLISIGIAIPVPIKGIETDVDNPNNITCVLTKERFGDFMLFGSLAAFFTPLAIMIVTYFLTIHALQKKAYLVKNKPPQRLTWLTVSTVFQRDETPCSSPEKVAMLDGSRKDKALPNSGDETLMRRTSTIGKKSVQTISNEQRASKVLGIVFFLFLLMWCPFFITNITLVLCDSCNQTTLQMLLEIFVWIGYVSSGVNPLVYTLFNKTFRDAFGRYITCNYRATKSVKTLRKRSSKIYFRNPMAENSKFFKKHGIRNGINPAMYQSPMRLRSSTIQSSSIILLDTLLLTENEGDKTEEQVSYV

Endothelin-1 receptor = target: T1, Endothelin-1 receptor (Homo sapiens, UniProt P25101); type: cell membranes, CHO-K1, Membrane; details: cho-k1; note: in other assays of this panel Not Active means under 50% inhibition at 10 µM
T1 sequence (P25101 whole entry): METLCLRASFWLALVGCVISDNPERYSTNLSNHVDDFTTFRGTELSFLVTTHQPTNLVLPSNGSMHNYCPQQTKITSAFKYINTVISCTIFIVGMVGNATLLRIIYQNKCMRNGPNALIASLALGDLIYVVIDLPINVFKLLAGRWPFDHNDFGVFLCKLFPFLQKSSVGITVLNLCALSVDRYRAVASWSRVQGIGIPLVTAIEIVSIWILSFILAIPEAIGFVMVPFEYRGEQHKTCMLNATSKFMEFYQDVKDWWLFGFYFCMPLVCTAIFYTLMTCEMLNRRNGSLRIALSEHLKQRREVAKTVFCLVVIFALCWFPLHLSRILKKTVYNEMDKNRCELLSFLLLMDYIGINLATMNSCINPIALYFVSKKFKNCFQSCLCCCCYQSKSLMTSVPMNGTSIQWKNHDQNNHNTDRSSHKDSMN

[3] = DRUGMATRIX: Glutamate, Kainate radioligand binding (ligand: [3H] Kainic acid); type: cell membranes, Rattus norvegicus, Wistar, Brain, Membrane; details: Not Active = under 50% inhibition at 10 µM
[4] = target: Platelet-activating factor receptor (Homo sapiens, UniProt P25105); test: biochemical; type: tissue-based; details: for IC50: platelet; for all read-outs here: in other assays of this panel Not Active means under 50% inhibition at 10 µM
Platelet-activating factor receptor, sequence (P25105 whole entry): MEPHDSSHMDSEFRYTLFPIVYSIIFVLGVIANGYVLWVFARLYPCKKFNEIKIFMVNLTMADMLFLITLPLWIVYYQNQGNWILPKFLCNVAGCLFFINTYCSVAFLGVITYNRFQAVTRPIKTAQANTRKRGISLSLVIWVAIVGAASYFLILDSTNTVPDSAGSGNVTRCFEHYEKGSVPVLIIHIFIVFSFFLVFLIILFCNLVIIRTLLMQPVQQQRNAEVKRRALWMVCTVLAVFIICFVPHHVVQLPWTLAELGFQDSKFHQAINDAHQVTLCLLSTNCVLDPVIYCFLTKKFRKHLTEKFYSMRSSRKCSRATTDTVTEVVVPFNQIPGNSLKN

[5] = DRUGMATRIX: Purinergic P2X radioligand binding (ligand: [3H] alpha, beta-Methylene-ATP); type: cell membranes, Oryctolagus cuniculus, New Zealand albino, Urinary bladder, Membrane; details: Not Active = under 50% inhibition at 10 µM
Cytochrome P450 2E1 = Cytochrome P450 2E1 (Homo sapiens, UniProt P05181); details: bti-tn-5b1-4; note: in other assays of this panel Not Active means under 50% inhibition at 10 µM
Cytochrome P450 2E1, sequence (P05181 whole entry): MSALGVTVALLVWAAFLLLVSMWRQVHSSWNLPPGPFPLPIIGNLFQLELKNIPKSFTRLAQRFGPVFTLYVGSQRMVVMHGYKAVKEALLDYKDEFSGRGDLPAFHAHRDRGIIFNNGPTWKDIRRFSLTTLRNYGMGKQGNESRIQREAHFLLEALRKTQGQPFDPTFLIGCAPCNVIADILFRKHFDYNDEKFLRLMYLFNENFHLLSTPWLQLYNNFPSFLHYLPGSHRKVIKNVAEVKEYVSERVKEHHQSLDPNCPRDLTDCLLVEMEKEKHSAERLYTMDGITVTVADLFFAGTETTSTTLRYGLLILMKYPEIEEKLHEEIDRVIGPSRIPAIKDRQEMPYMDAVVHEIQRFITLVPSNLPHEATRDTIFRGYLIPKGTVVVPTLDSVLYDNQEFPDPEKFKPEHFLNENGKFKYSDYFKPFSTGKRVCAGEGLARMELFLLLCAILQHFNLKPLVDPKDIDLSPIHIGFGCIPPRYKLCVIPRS

Beta-3 adrenergic receptor, sequence (P13945 whole entry): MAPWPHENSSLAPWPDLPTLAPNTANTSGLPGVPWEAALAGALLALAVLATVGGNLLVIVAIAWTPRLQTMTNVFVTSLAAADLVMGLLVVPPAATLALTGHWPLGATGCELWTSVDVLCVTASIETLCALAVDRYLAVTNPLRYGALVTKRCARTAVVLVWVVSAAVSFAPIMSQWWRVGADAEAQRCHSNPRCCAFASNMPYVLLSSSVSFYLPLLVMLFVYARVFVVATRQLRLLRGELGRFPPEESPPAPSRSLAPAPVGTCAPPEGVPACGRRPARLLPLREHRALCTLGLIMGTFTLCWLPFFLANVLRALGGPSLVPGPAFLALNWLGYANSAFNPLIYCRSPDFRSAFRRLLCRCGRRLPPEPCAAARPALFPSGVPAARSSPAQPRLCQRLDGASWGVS

SMILES | IC50 [1] | IC50 [2] | IC50 (Endothelin-1 receptor) | IC50 [3] | Ki [3] | IC50 [4] | IC50 [5] | Ki [5] | IC50 (Cytochrome P450 2E1) | Ki (Cytochrome P450 2E1) | pIC50 ([4]; read-out: IC50) | pKi ([4]; read-out: Ki) | pIC50 ([1]; read-out: IC50) | pKi ([1]; read-out: Ki)
Oc1ccccc1O [CATECHOL] | Not Active | Not Active | Not Active | Not Active | Not Active | Not Active | Not Active | Not Active | Not Active | Not Active | – | – | – | –
CO[C@@]1(NC(=O)CSCC#N)C(=O)N2C(C(=O)O)=C(CSc3nnnn3C)CS[C@@H]21 [CEFMETAZOLE] | Not Active | Not Active | Not Active | Not Active | Not Active | Not Active | Not Active | Not Active | Not Active | Not Active | – | – | – | –
CN(C(=O)CCCOc1ccc2[nH]c(=O)ccc2c1)C1CCCCC1 [CILOSTAMIDE] | Not Active | Not Active | Not Active | Not Active | Not Active | – | Not Active | Not Active | Not Active | Not Active | 5.43 | 5.72 | – | –
CC(C)(Oc1ccc(C2CC2(Cl)Cl)cc1)C(=O)O (configuration not stated) [CIPROFIBRATE] | Not Active | Not Active | Not Active | Not Active | Not Active | Not Active | Not Active | Not Active | Not Active | Not Active | – | – | – | –
Nc1nc(Cl)nc2c1ncn2[C@H]1C[C@H](O)[C@@H](CO)O1 [CLADRIBINE] | Not Active | Not Active | Not Active | Not Active | Not Active | Not Active | Not Active | Not Active | Not Active | Not Active | – | – | – | –
CC[C@H]1OC(=O)[C@H](C)[C@@H](O[C@H]2C[C@@](C)(OC)[C@@H](O)[C@H](C)O2)[C@H](C)[C@@H](O[C@@H]2O[C@H](C)C[C@H](N(C)C)[C@H]2O)[C@](C)(OC)C[C@@H](C)C(=O)[C@H](C)[C@@H](O)[C@]1(C)O [CLARITHROMYCIN] | Not Active | Not Active | Not Active | Not Active | Not Active | Not Active | Not Active | Not Active | Not Active | Not Active | – | – | – | –
O=C(O)c1cc(=O)c2c(OCC(O)COc3cccc4oc(C(=O)O)cc(=O)c34)cccc2o1 [CROMOLYN] | Not Active | Not Active | Not Active | Not Active | Not Active | Not Active | Not Active | Not Active | Not Active | Not Active | – | – | – | –
O=P1(N(CCCl)CCCl)NCCCO1 (configuration not stated) [CYCLOPHOSPHAMIDE ANHYDROUS] | Not Active | Not Active | Not Active | Not Active | Not Active | Not Active | Not Active | Not Active | Not Active | Not Active | – | – | – | –
CC(=O)O[C@]1(C(C)=O)CC[C@H]2[C@@H]3C=C(Cl)C4=CC(=O)[C@@H]5C[C@@H]5[C@]4(C)[C@H]3CC[C@@]21C [CYPROTERONE ACETATE] | Not Active | Not Active | Not Active | Not Active | Not Active | Not Active | Not Active | Not Active | Not Active | Not Active | – | – | – | –
Nc1nc(N)nc(NC2CC2)n1 [CYROMAZINE] | Not Active | Not Active | Not Active | Not Active | Not Active | Not Active | Not Active | Not Active | Not Active | Not Active | – | – | – | –
C#C[C@]1(O)CC[C@H]2[C@@H]3CCC4=Cc5oncc5C[C@]4(C)[C@H]3CC[C@@]21C [DANAZOL] | – | Not Active | Not Active | Not Active | Not Active | Not Active | Not Active | Not Active | Not Active | Not Active | – | – | 4.77 | 4.89
CCN[C@@H](C)Cc1cccc(C(F)(F)F)c1 [DEXFENFLURAMINE] | Not Active | Not Active | Not Active | Not Active | Not Active | Not Active | Not Active | Not Active | Not Active | Not Active | – | – | – | –
